# According to PMC5855688, “BC-Box Motif-Mediated Neuronal Differentiation of Somatic Stem Cells” (International Journal of Molecular Sciences, 2018):
# Legend:
# STAT3 = assay: Western blotting of STAT3 before and after peptide treatment; format: cell-based, rat; settings: Western blot, Figure 5B, p < 0.01
# [1] = tested on: skin-derived precursors (SKPs); assay: Whole-cell patch-clamp electrophysiology; format: cell-based, rat (neonate Wistar); settings: five days after peptide addition at 3 μM, holding potential −80 mV, steps of 20 mV from −100 to 100 mV, VHL(157–168) vs VHL(157–171) p < 0.01
# Experimental: (§1) Rodent skin-derived precursor cells (SKPs), which can differentiate to neurons, were used. SKPs were previously isolated from the back dermis of neonate Wistar rats by the authors. These cells were cultured in growth medium composed of DMEM/F12 (1:1; Gibco, Grand Island, NY, USA) containing 2% B27 supplement (Gibco), 20 ng/mL epidermal growth factor (EGF; Upstate Biotechnology, Lake Placid, NY, USA), and 40 ng/mL bFGF (PeproTech EC Ltd., Rocky Hill, NJ, USA) in a humidified incubator at 37 °C with 5% CO2. The floating clusters of cultured cells were centrifuged and dissociated into a single-cell suspension by use of a Pasteur pipette with a flame-polished tip. These single cells were then re-suspended into at a concentration of 50,000 cells/mL for passage or experiments.
# (§2) For neuronal differentiation, cells were dissociated into a single-cell suspension by use of a Pasteur pipette and re-suspended into a concentration of 50,000 cells/mL in DMEM/F12 without serum, neurotrophic factors or growth factors. Then, the cells were cultured on poly-L-lysine-coated dishes or cover glasses, and the synthesized peptides at concentrations from 1 to 5 μM were added to the culture medium and delivered into the cells. Three days or more later, the cells were used for morphological, immunocytochemical, immunohistochemical, electrophysiological and immunoprecipitation studies, as well as for Western blot analysis.
# To record fast sodium and delayed rectifier potassium currents, we prepared extracellular and intracellular solutions as described previously. […] For recordings and data analysis we used CEZ-2300 (Nihon Kohden, Tokyo, Japan) and pCLAMP 6.0 software (Axon Instruments, Burlingame, CA, USA). Linear components of leak and capacitive currents were reduced by analogue circuitry and then canceled by the P/N method. Signals were sampled every 20 μs, and currents were filtered at 5 kHz. Data were additionally processed with Origin 5.0 (Microcal, Northhampton, MA, USA).
# rat brain = assay: Immunohistochemistry (NeuN) of transplanted peptide-treated cells in rat brain; format: in vivo, rat (Wistar); settings: 1 × 10^5 peptide-treated cells transplanted into rat brain, 6 weeks; mean ± SEM; vs VHL(157–171): p < 0.01 for VHL(157–168), p < 0.005 for TAT
# Experimental: To evaluate neuronal differentiation of transplanted cells in rat brains, immunohistochemical study was performed as described previously. Before grafting, cells were preincubated with red fluorescence PKH26PCL (Sigma, St. Louis, MO, USA). […] Rats were anesthetized with isoflurane before surgery, and 1 × 10^5 cells were transplanted into rat brain. The rats were perfused with periodate-lysine-paraformaldehyde solution 6 weeks after the transplantation. Their brains were subsequently dissected and postfixed in the same medium for 2 h, cryopreserved in 30% sucrose for 12 h, and then embedded in Tissue Tek OCT compound (Sakura, Tokyo, Japan). Cryostat coronal sections of 14-μm thickness were prepared for immunohistochemistry. For immunostaining, sections were incubated with primary antibody, anti-NeuN antibody, and then incubated in secondary antibody, FITC-conjugated anti-rabbit IgG. Counterstaining was done with DAPI. In immohistochemistry, observations were made with a confocal immunofluorescence microscope (FV300, Olympus, Tokyo, Japan).
# Wistar rats (Clea, Tokyo, Japan) were used in all experiments and housed in a temperature controlled room on a 12-h day/night cycle with free access to food and water. All animal experimental procedures were approved by the Institutional Animal Use Committee of Yokohama City University (ID 153, 1 April 2015) and were in accordance with National Institutes of Health guidelines for care and use of laboratory animals.
# [2] = tested on: skin-derived precursors (SKPs); assay: Neurite outgrowth / morphological evaluation of neuronal differentiation; format: cell-based, rat (neonate Wistar); settings: for Morphological change: phase-contrast microscopy, Figure 1E
# Experimental: as §1, §2
# Neurite outgrowth with length exceeding the diameter of the neuronal soma is often assessed as a morphological index of neuronal differentiation. After a single-cell suspension was made by pipetting, the cells were cultured in DMEN/F12 medium alone at 37 °C in a 5% CO2 incubator. Thereafter, neurite outgrowth was evaluated with the following 4 levels: +++, for above 50% of the cells showing neurite outgrowth; ++, for 20–50% with neurite outgrowth; +, for 5–19% having neurite outgrowth; and −, for below 5% of the cells with neurite outgrowth.
# [3] = tested on: skin-derived precursors (SKPs); assay: Immunocytochemistry with anti-Neurofilament-H (NFH) antibody; format: cell-based, rat (neonate Wistar); settings: peptides at 1 to 5 μM; for Percentage of NFH-positive cells: immunocytochemistry, mean ± SEM, vs VHL(157–171): p < 0.01 for VHL(157–168), p < 0.005 for TAT
# Experimental: as §1, §2
# Cultured cells were fixed with 4% paraformaldehyde in PBS (Phosphate buffered saline) for 10 min at room temperature. Cells were incubated for 1 h at room temperature with primary antibodies. Antibodies against anti-MAP2 antibody (Sigma-Aldrich, St. Louis, MO, USA), anti-Neurofilment-H (NFH) antibody (Sigma-Aldrich), anti-NeuN antibody (Merk Millipore, Billerica, MA, USA), anti-GFAP antibody (DAKO, Santa Clara, CA, USA), anti-tyrosine hydroxylase (TH) antibody (Merk Millipore, Billerica, MA, USA), anti-choline acetyl transferase (ChAT) antibody (Abbiotec, San Diego, CA, USA), anti-glutamic acid decaboxylase (GAD) antibody (Enzo Life Sciences, Flamingdale, NY, USA), and anti-rhodopsin antibody (Santa Cruz, San Diego, CA, USA) were used. […] Nuclear counterstaining was done with DAPI (Molecular Probes, Eugene, OR, USA) or TO-PRO-3 (Molecular Probes), and observations were made with a fluorescence microscope system (FV300, Olympus, Tokyo, Japan). We counted the number of immuno-positive cells with a given antibody in 4 to 6 random non-overlapping visual fields (50–200 cells per field) in each experiment. […] The degree of positivity was expressed as the rate of immuno-positive cells to the total number of nuclei stained with DAP1 or TO-PRO-3.
# JAK2 = assay: Western blotting of JAK2 before and after peptide treatment; format: cell-based, rat; settings: Western blot, Figure 5B, p < 0.01
# [4] = tested on: skin-derived precursors (SKPs); assay: Western blot analysis of NFH protein; format: cell-based, rat (neonate Wistar); settings: peptides at 1 to 5 μM; for NFH protein amount / band: three days after treatment, Figure 3B, less than VHL(157–171): VHL(157–168) p < 0.01, TAT p < 0.001
# Experimental: as §1, §2
# (§3) Cultured cells were washed 3 times in cold PBS and then scraped into ice-cold PBS. After incubation on ice for 10 min, the cells were lysed with lysis buffer and centrifuged, after which the supernatants were collected. Each sample was separated by SDS-PAGE under reducing conditions and transferred electrophoretically to nitrocellulose filters. Non-specific binding of antibody was blocked by incubation with 5% donkey serum for 1 h. Western blots were probed with anti-MAP2 antibody, anti-NFH antibody, anti-ChAT antibody, anti-GAD antibody, anti-rhodopsin antibody, anti-TH antibody, and anti-elongin C antibody (Santa Cruz, San Diego, CA, USA) followed by horseradish peroxidase-conjugated secondary antibodies. Protein bands were detected by using a chemical luminescence detection system (ECL Plus Western Blotting Reagent Pack, Amersham, Hemel Hempstead, UK). Images were analyzed with LAS-1000 (Fujifilm, Tokyo, Japan), and the density of the bands was determined by using Image Gauge software (Fujifilm).
# [5] = tested on: skin-derived precursors (SKPs); assay: Immunocytochemistry of neuronal markers in NDD peptide-treated cells; format: cell-based, rat (neonate Wistar); settings: Figure 6B
# Experimental: as §1, §2
# Cultured cells were fixed with 4% paraformaldehyde in PBS (Phosphate buffered saline) for 10 min at room temperature. Cells were incubated for 1 h at room temperature with primary antibodies. Antibodies against anti-MAP2 antibody (Sigma-Aldrich, St. Louis, MO, USA), anti-Neurofilment-H (NFH) antibody (Sigma-Aldrich), anti-NeuN antibody (Merk Millipore, Billerica, MA, USA), anti-GFAP antibody (DAKO, Santa Clara, CA, USA), anti-tyrosine hydroxylase (TH) antibody (Merk Millipore, Billerica, MA, USA), anti-choline acetyl transferase (ChAT) antibody (Abbiotec, San Diego, CA, USA), anti-glutamic acid decaboxylase (GAD) antibody (Enzo Life Sciences, Flamingdale, NY, USA), and anti-rhodopsin antibody (Santa Cruz, San Diego, CA, USA) were used. After incubation with primary antibody, the cells were incubated for 1 h with secondary antibody, either rhodamine-conjugated anti-mouse IgG (Sigma-Aldrich) or FITC-conjugated anti-rabbit IgG (Sigma-Aldrich). Nuclear counterstaining was done with DAPI (Molecular Probes, Eugene, OR, USA) or TO-PRO-3 (Molecular Probes), and observations were made with a fluorescence microscope system (FV300, Olympus, Tokyo, Japan). We counted the number of immuno-positive cells with a given antibody in 4 to 6 random non-overlapping visual fields (50–200 cells per field) in each experiment. At least 2 experiments were performed per condition. The degree of positivity was expressed as the rate of immuno-positive cells to the total number of nuclei stained with DAP1 or TO-PRO-3.
# [6] = tested on: skin-derived precursors (SKPs); assay: Western blot analysis of neuronal markers in NDD peptide-treated cells; format: cell-based, rat (neonate Wistar); settings: Figure 6A
# Experimental: as §1, §2, §3
# elongin C = assay: Immunoprecipitation with anti-elongin C, immunoblot anti-FITC; format: binding, rat; settings: FITC-conjugated peptides, Figure 3C, difference p < 0.001
# Experimental: as §2
# Cultured cells (1 × 10^6) were washed with ice-cold PBS and lysed in RIPA lysis buffer (Upstate, Charlottesville, VA, USA). The total protein was extracted from the cells, and the total protein concentration of each lysate was adjusted to 1 mg/mL. The lysates were immunoprecipitated with anti- elongin C antibody (Santa Cruz, San Diego, CA, USA) diluted at 1:500 by using μMACS Protein A Microbeads (Miltenyi Biotec, Bergisch Gladbach, Germany). The immunoprecipitates were analyzed by SDS/gradient polyacrylamide gel and Western blotting with anti-FITC antibody (Santa Cruz, San Diego, CA, USA) diluted 1:500. Immunolabeled bands were detected by using enhanced chemiluminescence reagents (Amersham Biosciences Corp., Piscataway, NJ, USA). Images were analyzed with LAS-1000 (Fujifilm), and the density of the bands was determined by using Image Gauge software (Fujifilm).
# elongin BC = target: T1, elongin BC (Homo sapiens, UniProt Q15369+Q15370); assay: Isothermal titration calorimetry (ITC); format: binding
# T1 construct: made in house; host or cells: E. coli BL21 (DE3), pCDFDuet-1
# Experimental: In order to determine the crucial peptide sequence for elongin BC binding by isothemal titration caloritetry (ITC), recombinant proteins of elongin B and elongin C were prepared as follows. […] For purification, cell pellets were lysed by sonication in buffer A (20 mM Tris-HCl, pH 8.0, 0.5 M NaCl, 10 mM imidazole), and the soluble fraction was loaded onto Ni-NTA resin (Qiagen, Venlo, Netherlands) and eluted with buffer B (20 mM Tris-HCl (pH 8.0), 0.5 M NaCl, 250 mM imidazole). Eluted proteins were then loaded onto a Mono Q column followed by a Superdex 75 10/300 GL column (GE Healthcare, Chicago, IL, USA). For the ITC experiments, the elongin BC solution was exchanged with buffer C (20 mM HEPES-NaOH (pH 8.0), 150 mM NaCl) by using size-exclusion chromatography. Assays to assess the binding of peptides to elongin BC were performed by using a MicroCal iTC200 isothermal titration calorimeter (GE Healthcare, Chicago, IL, USA). […] The concentration of elongin BC was adjusted to a final one of 35 μM and injected into the sample cell (204 μL). One mM peptide was titrated into the protein solution as 40 consecutive 1.0-μL aliquots at 120-s intervals at 25 °C. The first injection volume was 0.4 μL, and the observed thermal peak was excluded from the data analyses. Duplicate experiments were performed independently. […] The KD values were calculated from duplicate thermograms.
# [7] = Figure 2A, rates of cells having neurites, peptides at 1 to 5 μM, VHL157–168 vs VHL(157–171) p < 0.005
# [8] = BC-box motif plus five C-terminal amino acids peptides, delivered with TAT PTD, 1 to 5 μM
# T1 sequence (Q15369 17-112): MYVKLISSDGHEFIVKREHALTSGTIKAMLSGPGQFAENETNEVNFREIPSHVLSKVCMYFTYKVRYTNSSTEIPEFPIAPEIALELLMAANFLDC
# T1 sequence (Q15370 whole entry partner): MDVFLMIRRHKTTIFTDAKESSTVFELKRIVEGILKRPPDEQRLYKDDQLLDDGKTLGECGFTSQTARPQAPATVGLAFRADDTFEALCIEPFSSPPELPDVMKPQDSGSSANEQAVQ
sequence,measurement,setting,value
"YARAAARQARA [TAT, modified TAT protein transduction domain peptide, reference compound]",STAT3 degradation,STAT3,Bands for JAK2 and STAT3 were found for pre-treated cells or TAT-treated cells more than post-treated cells
same,Voltage-gated outward K+ and inward Na+ currents,[1],no current was elicited
same,Positive rates of NeuN,rat brain,3.2 ± 0.8%
same,Neurite Outgrowth Activity,[2]; [7],scarcely did
same,Morphological change,[2]; peptides at 1 to 5 μM,no morphological change
same,Percentage of NFH-positive cells,[3],6.9 ± 1.5%
same,JAK2 degradation,JAK2,Bands for JAK2 and STAT3 were found for pre-treated cells or TAT-treated cells more than post-treated cells
same,NFH protein amount / band,[4],a faint band
"YARAAARQARAVYTLKERCLQVVRSLVK [VHL(155–171), pVHL fragment conjugated with PTD]",Morphological change,[2]; peptides at 1 to 5 μM,assumed a neuron-like morphology
same,Rate of cells having neurites,"[2]; ten divided pVHL sequences compared, Figure 1D, peptides at 1 to 5 μM, three days or more",greatest rate
same,Rate of immunoreactivity for Neurofilament-H (NFH),"[3]; ten divided pVHL sequences compared, Figure 1C",greatest rate of immunoreactivity
same,NFH protein expression,"[4]; ten divided pVHL sequences compared, Figure 1B",greatest expression
YARAAARQARASLQYICRAVICRCTT [SOCS5 BC-box motif plus five amino acids],Rate of TH-positive (dopaminergic neuron-like) cells,[5],high rates of positive cells
same,Rate of rhodopsin-positive cells,[5],high rates of positive cells
same,Expression of rhodopsin,[6],highly expressed
same,Neurite Outgrowth Activity,[2]; [8],+++ (above 50% of the cells showing neurite outgrowth)
"YARAAARQARATLKERCLQVVRS [VHL(157–168), BC-box motif plus two amino acids, conjugated with PTD]",Voltage-gated outward K+ and inward Na+ currents,[1],both significantly smaller outward potassium and inward Na^+ currents
same,Positive rates of NeuN,rat brain,9.2 ± 1.8%
same,Neurite Outgrowth Activity,[2]; [7],significantly weaker neurite outgrowth activity than VHL(157–171)
same,Percentage of NFH-positive cells,[3],10.1 ± 2.2%
same,NFH protein amount / band,[4],a less distinct band for NFH
"YARAAARQARATLKERCLQVVRS [FITC-VHL(157–168), FITC-tagged VHL(157–168) peptide]",Binding to elongin C (FITC band after anti-elongin C immunoprecipitation),elongin C,a faint band for FITC
same,Binding to elongin C (FITC band after anti-elongin C immunoprecipitation),elongin C; listed as FITC-conjugated VHL(157–168),significantly less did
YARAAARQARATLLESSARTILHNRI [LRR-1 BC-box motif plus five amino acids],Rate of GAD-positive (GABAnergic neuron-like) cells,[5],high rates of positive cells
same,Rate of TH-positive (dopaminergic neuron-like) cells,[5],high rates of positive cells
same,Expression of GAD,[6]; glutamic acid decarboxylase,expressed highly
same,Neurite Outgrowth Activity,[2]; [8],++ (20–50% with neurite outgrowth)
"YARAAARQARATLKERCLQVVRSLVK [FITC-VHL(157–171), FITC-tagged VHL(157–171) peptide]",Binding to elongin C (FITC band after anti-elongin C immunoprecipitation),elongin C,A distinct band for FITC
same,Binding to elongin C (FITC band after anti-elongin C immunoprecipitation),elongin C; listed as FITC-conjugated VHL(157–171),distinctly bound to elongin C
"YARAAARQARAKERCLQVVRS [VHL(159–171), pVHL fragment conjugated with PTD]",Neurite Outgrowth Activity,[2]; [7],scarcely did
same,Elongin BC binding affinity,"elongin BC; two residues deleted from the N-terminus, p < 0.0001",complete loss of elongin BC binding affinity
"TLKERCLQVVRS [VHL157–168, VHL peptide without TAT, for ITC, synthesized by CS Bio Co]",ΔS,"elongin BC; 25 °C, 20 mM HEPES-NaOH (pH 8.0), 150 mM NaCl, mean ± S.D. of two independent replicates",−8.54 ± 0.74 cal/mol/deg
